Patent US8450315B2, “Phosphoinositide 3-kinase inhibitor compounds and methods of use” (Genentech, Inc., priority 2006, dated 2013)

Legend:
[1] = target: human PI3K isoform delta (p110 delta) (Homo sapiens, UniProt O00329); assay: p110 isoform selectivity scintillation proximity assay (SPA), delta isoform; assay type: biochemical; settings: fold potency over delta relative to alpha, calculated from IC50 values (SPA)
Protocol: (§1) Binding of Formula Ia and Ib compounds from Tables 1a and 1b to purified preparations of p110 isoforms alpha, beta, delta, and gamma was measured by a Scintillation Proximity Assay (SPA) to determine binding activity (IC50 μMol) and selectivity of binding of beta, delta, and gamma isoforms relative to alpha (Example 365). These values are expressed in Table 2.
(§2) The ability of Formula Ia and Ib compounds from Tables 1a and 1b to inhibit the lipid kinase activity of purified preparations of human PI3K isoforms alpha, beta, delta, and gamma was determined by a radiometric scintillation proximity assay (SPA, GE Healthcare, Amersham Biosciences). Concentration dependent inhibition at 50% (IC50 μMol) was determined for all four isoforms […] and fold potency over beta, delta, and gamma relative to alpha was calculated for a selection of compounds in Table 2. Each compound has a p110 alpha IC50<1 μMol.

[2] = target: human PI3K isoform gamma (p110 gamma) (Homo sapiens, UniProt P48736); assay: p110 isoform selectivity scintillation proximity assay (SPA), gamma isoform; assay type: biochemical; settings: fold potency over gamma relative to alpha, calculated from IC50 values (SPA)
Protocol: as §1, §2

[3] = target: human PI3K isoform beta (p110 beta) (Homo sapiens, UniProt P42338); assay: p110 isoform selectivity scintillation proximity assay (SPA), beta isoform; assay type: biochemical; settings: fold potency over beta relative to alpha, calculated from IC50 values (SPA)
Protocol: as §1, §2

[4] = cited from earlier work
[5] = cited from earlier work; remark: listed apart in the source

human PI3K isoform beta (p110 beta), sequence (P42338 whole entry, canonical isoform): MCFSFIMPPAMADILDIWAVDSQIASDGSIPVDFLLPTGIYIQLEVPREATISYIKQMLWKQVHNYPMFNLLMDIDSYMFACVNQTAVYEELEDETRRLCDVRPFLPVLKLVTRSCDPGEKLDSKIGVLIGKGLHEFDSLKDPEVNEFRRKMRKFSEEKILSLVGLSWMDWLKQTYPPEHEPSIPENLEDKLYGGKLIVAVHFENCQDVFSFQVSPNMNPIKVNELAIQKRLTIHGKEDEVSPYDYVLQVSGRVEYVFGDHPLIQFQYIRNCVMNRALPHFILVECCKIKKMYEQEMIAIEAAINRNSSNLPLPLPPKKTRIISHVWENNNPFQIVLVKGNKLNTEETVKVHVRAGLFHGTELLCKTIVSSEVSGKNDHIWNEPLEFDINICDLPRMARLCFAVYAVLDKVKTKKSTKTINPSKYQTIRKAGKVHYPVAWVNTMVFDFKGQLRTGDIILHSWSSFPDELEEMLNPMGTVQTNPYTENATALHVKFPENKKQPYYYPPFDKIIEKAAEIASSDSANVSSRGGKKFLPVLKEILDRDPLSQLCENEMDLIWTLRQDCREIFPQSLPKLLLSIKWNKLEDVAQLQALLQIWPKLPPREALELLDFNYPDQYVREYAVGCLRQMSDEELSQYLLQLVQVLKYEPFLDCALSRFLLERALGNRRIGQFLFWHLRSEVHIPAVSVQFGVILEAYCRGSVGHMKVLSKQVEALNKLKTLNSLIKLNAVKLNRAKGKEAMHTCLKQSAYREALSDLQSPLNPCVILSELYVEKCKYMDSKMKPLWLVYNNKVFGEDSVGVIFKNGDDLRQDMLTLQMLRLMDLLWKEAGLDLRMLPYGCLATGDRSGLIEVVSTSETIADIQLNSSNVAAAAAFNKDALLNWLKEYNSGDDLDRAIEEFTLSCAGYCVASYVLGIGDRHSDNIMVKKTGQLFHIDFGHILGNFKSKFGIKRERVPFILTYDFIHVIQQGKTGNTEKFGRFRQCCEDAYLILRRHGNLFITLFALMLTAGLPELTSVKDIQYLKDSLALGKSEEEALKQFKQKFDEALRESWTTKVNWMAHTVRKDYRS
human PI3K isoform beta (p110 beta), sequence (P27986 whole entry partner, canonical isoform): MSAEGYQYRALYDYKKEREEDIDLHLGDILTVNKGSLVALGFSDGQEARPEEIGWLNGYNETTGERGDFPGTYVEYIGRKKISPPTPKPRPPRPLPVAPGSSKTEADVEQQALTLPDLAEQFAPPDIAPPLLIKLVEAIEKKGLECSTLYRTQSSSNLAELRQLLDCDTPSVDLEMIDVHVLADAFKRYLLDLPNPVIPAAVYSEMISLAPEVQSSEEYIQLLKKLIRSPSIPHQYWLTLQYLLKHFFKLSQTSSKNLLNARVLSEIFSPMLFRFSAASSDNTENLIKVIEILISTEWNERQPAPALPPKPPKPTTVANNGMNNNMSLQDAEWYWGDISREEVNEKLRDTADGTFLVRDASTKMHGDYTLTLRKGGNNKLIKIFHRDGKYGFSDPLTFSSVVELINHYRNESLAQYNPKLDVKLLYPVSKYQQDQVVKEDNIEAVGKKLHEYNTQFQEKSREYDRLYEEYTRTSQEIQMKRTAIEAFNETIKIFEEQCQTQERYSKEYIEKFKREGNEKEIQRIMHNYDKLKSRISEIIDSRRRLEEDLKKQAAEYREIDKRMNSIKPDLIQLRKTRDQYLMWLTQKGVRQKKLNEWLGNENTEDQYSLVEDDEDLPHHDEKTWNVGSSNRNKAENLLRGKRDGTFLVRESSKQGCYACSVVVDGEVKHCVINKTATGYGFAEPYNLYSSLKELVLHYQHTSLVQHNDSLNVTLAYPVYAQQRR
human PI3K isoform delta (p110 delta), sequence (O00329 whole entry, canonical isoform): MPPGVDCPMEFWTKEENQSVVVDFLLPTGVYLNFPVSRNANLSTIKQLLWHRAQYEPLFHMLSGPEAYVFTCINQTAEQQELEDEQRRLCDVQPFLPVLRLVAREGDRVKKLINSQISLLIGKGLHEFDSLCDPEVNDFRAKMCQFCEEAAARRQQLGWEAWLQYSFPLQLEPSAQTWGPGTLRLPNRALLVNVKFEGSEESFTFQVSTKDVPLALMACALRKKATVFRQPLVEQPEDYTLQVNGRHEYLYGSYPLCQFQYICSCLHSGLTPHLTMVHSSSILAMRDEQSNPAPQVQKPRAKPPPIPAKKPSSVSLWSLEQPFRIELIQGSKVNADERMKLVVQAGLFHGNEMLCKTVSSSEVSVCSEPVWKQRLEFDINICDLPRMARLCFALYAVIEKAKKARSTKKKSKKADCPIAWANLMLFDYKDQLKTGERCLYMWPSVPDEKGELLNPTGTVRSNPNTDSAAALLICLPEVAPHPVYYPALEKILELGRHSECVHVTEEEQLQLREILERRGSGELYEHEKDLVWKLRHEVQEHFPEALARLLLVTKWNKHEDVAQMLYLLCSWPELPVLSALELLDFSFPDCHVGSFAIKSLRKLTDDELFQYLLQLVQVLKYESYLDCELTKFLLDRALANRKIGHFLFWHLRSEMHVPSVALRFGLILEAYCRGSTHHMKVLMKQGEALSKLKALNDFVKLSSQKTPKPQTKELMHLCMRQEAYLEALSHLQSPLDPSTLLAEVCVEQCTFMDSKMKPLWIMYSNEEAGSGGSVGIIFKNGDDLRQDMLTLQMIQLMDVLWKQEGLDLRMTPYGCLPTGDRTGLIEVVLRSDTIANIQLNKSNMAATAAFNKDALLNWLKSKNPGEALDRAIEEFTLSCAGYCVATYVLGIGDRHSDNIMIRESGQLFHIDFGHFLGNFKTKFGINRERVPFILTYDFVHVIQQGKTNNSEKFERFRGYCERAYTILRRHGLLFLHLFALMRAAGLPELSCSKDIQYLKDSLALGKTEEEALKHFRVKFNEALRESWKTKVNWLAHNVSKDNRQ
human PI3K isoform delta (p110 delta), sequence (P27986 whole entry partner, canonical isoform): as the sequence (P27986 whole entry partner, canonical isoform) above
human PI3K isoform gamma (p110 gamma), sequence (P48736 whole entry, canonical isoform): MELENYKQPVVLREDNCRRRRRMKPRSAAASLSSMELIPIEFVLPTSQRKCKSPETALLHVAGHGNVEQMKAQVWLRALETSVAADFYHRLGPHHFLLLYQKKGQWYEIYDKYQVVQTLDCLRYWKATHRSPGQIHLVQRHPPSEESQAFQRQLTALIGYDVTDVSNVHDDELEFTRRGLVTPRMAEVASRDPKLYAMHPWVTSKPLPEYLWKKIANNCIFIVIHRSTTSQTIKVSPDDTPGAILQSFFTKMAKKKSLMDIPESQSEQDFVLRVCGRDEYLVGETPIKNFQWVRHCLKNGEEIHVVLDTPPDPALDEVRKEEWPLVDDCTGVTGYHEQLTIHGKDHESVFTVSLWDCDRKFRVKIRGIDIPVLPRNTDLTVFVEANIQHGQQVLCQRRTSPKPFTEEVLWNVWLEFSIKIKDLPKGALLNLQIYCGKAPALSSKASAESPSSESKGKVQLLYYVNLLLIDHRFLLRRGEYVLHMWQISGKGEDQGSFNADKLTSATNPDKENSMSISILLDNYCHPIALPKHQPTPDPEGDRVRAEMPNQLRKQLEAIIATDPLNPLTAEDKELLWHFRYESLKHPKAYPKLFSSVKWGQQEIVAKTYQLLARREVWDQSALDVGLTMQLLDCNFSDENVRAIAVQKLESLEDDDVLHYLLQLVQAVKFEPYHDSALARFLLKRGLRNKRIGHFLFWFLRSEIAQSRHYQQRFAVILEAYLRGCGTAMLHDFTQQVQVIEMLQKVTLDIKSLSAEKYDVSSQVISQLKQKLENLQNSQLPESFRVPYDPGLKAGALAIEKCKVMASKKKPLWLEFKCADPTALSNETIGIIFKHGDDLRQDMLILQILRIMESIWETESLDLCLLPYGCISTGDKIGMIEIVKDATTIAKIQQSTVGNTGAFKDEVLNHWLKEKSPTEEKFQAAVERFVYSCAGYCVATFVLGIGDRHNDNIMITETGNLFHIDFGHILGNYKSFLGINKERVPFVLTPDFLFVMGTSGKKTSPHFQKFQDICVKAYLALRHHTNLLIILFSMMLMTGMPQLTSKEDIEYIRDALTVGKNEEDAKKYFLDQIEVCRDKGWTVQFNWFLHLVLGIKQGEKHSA

Row | alpha/delta [1] | alpha/gamma [2] | alpha/beta [3] | Structure (SMILES) | aqueous solubility [4] | metabolism in animals ([5]; animals) | pharmacokinetics ([5]; in vivo)
1 | >10 | >10 | >10 | Cc1c(-c2cccc(S(C)(=O)=O)c2)sc2c(N3CCOCC3)nc(-c3cnc4[nH]ccc4c3)nc12 [Compound 395, 7-methyl-6-(3-(methylsulfonyl)phenyl)-4-morpholino-2-(1H-pyrrolo[2,3-b]pyridin-5-yl)thieno[3,2-d]pyrimidine] | – | – | –
2 | >10 | >10 | >10 | CN(Cc1cc2c(N3CCOCC3)nc(-c3cnc4[nH]ccc4c3)nc2s1)S(C)(=O)=O [Compound 417, N-methyl, N-methylsulfonyl(4-morpholino-2-(1H-pyrrolo[2,3-b]pyridin-5-yl)thieno[2,3-d]pyrimidin-6-yl)methanamine] | – | – | –
3 | 10 | >10 | >10 | CS(=O)(=O)c1cccc(-c2cc3nc(-c4cnc5[nH]ccc5c4)nc(N4CCOCC4)c3s2)c1 [Compound 418, 6-(3-(methylsulfonyl)phenyl)-4-morpholino-2-(1H-pyrrolo[2,3-b]pyridin-5-yl)thieno[3,2-d]pyrimidine] | – | – | –
4 | <10 | >10 | >10 | CC(C)(O)c1cc2nc(-c3cnc4[nH]ccc4c3)nc(N3CCOCC3)c2s1 [Compound 422, 2-(4-morpholino-2-(1H-pyrrolo[2,3-b]pyridin-5-yl)thieno[3,2-d]pyrimidin-6-yl)-propan-2-ol] | – | – | –
5 | >10 | >10 | >10 | c1cc2cc(-c3nc(N4CCOCC4)c4sc(-c5ccc(N6CCOCC6)nc5)cc4n3)cnc2[nH]1 [Compound 428, 4-morpholino-6-(6-morpholinopyridin-3-yl)-2-(1H-pyrrolo[2,3-b]pyridin-5-yl)thieno[3,2-d]pyrimidine] | – | – | –
6 | >10 | >10 | >10 | Nc1nc(-c2cc3nc(-c4cnc5[nH]ccc5c4)nc(N4CCOCC4)c3s2)cs1 [Compound 429, 4-(4-morpholino-2-(1H-pyrrolo[2,3-b]pyridin-5-yl)thieno[3,2-d]pyrimidin-6-yl)thiazol-2-amine] | – | – | –
7 | – | – | – | O=c1cc(N2CCOCC2)oc2c(-c3ccccc3)cccc12 [LY294002, 2-(4-morpholinyl)-8-phenyl-4H-1-benzopyran-4-one] | lack of aqueous solubility | rapidly metabolized in animals | poor pharmacokinetics
